Like-named read-outs stand apart in the source and are kept apart here. Positions of bridges follow the written chain, without caps; N, C: chain ends. Non-standard residues stand in square brackets, D forms with d. Residues, ends and D or L forms follow the SMILES beside them. *: point of attachment. Pent4ynoyl = C#CCCC(=O)*; Pra = C#CC[C@H](N)C(=O)O; Abu = CC[C@H](N)C(=O)O
Experiments:
Assay in all cases: cell-based
hNav1.3 = hNav1.3 (Homo sapiens, UniProt Q9NY46); conditions: IonWorks Quattro, read-out: IWQ Use Nav1.3
hNav1.5 = hNav1.5 (Homo sapiens, UniProt Q14524)
Chain of hNav1.5 (Q14524 whole entry, looked up): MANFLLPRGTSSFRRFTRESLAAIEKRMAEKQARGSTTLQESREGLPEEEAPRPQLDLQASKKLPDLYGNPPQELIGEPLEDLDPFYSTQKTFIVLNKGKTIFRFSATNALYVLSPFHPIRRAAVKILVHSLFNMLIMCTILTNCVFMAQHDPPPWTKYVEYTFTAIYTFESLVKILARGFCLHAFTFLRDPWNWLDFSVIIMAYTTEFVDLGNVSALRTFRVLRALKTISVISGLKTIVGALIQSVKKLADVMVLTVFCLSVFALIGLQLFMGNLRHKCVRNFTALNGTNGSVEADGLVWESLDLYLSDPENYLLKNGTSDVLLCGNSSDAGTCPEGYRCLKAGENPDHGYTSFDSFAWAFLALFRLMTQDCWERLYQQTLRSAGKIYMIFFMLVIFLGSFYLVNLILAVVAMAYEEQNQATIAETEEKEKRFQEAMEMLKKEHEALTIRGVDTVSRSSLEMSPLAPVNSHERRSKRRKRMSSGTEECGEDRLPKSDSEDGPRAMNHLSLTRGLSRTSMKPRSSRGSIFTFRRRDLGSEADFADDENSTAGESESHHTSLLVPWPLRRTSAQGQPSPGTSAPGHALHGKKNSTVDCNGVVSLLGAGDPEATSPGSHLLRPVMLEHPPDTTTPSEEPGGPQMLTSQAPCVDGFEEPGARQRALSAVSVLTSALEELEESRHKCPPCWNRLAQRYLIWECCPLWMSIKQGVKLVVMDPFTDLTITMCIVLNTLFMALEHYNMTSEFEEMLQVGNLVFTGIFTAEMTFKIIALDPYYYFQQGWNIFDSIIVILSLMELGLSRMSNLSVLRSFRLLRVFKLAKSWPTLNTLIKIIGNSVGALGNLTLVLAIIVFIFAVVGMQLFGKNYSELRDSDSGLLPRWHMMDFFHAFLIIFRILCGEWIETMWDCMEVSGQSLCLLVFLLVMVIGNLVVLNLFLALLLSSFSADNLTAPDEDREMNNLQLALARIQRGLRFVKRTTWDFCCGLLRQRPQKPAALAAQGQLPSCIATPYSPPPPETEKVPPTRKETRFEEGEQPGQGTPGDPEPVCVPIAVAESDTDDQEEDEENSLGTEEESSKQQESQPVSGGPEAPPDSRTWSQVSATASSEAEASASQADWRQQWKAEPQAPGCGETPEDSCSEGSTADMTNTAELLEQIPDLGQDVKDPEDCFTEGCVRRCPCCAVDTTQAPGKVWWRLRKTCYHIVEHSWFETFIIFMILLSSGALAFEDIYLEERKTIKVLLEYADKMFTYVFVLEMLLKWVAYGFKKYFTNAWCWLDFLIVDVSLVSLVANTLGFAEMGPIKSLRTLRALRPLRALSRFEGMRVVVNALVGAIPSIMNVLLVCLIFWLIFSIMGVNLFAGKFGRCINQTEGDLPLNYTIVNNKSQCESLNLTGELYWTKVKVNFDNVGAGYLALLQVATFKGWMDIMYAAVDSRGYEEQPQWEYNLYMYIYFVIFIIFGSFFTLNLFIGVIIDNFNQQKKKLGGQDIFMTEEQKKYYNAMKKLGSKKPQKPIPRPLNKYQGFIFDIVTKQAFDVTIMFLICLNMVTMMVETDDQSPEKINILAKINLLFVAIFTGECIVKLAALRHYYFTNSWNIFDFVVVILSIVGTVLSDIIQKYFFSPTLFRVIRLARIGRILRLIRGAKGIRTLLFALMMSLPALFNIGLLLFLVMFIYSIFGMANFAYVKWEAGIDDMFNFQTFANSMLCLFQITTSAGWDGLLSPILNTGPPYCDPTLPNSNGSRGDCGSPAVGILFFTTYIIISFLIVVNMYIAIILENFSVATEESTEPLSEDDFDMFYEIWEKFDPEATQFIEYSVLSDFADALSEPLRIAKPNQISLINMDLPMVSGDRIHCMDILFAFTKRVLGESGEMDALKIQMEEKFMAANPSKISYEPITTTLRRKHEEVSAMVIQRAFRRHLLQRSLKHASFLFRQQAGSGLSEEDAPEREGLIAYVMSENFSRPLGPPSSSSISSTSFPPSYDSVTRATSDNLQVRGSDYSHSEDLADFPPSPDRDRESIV

hNav1.7 = hNav1.7 (Homo sapiens, UniProt Q15858); format: cell-based; conditions: IonWorks Quattro, read-out: IWQ Use Nav1.7
Chain of hNav1.7 (Q15858 whole entry, looked up): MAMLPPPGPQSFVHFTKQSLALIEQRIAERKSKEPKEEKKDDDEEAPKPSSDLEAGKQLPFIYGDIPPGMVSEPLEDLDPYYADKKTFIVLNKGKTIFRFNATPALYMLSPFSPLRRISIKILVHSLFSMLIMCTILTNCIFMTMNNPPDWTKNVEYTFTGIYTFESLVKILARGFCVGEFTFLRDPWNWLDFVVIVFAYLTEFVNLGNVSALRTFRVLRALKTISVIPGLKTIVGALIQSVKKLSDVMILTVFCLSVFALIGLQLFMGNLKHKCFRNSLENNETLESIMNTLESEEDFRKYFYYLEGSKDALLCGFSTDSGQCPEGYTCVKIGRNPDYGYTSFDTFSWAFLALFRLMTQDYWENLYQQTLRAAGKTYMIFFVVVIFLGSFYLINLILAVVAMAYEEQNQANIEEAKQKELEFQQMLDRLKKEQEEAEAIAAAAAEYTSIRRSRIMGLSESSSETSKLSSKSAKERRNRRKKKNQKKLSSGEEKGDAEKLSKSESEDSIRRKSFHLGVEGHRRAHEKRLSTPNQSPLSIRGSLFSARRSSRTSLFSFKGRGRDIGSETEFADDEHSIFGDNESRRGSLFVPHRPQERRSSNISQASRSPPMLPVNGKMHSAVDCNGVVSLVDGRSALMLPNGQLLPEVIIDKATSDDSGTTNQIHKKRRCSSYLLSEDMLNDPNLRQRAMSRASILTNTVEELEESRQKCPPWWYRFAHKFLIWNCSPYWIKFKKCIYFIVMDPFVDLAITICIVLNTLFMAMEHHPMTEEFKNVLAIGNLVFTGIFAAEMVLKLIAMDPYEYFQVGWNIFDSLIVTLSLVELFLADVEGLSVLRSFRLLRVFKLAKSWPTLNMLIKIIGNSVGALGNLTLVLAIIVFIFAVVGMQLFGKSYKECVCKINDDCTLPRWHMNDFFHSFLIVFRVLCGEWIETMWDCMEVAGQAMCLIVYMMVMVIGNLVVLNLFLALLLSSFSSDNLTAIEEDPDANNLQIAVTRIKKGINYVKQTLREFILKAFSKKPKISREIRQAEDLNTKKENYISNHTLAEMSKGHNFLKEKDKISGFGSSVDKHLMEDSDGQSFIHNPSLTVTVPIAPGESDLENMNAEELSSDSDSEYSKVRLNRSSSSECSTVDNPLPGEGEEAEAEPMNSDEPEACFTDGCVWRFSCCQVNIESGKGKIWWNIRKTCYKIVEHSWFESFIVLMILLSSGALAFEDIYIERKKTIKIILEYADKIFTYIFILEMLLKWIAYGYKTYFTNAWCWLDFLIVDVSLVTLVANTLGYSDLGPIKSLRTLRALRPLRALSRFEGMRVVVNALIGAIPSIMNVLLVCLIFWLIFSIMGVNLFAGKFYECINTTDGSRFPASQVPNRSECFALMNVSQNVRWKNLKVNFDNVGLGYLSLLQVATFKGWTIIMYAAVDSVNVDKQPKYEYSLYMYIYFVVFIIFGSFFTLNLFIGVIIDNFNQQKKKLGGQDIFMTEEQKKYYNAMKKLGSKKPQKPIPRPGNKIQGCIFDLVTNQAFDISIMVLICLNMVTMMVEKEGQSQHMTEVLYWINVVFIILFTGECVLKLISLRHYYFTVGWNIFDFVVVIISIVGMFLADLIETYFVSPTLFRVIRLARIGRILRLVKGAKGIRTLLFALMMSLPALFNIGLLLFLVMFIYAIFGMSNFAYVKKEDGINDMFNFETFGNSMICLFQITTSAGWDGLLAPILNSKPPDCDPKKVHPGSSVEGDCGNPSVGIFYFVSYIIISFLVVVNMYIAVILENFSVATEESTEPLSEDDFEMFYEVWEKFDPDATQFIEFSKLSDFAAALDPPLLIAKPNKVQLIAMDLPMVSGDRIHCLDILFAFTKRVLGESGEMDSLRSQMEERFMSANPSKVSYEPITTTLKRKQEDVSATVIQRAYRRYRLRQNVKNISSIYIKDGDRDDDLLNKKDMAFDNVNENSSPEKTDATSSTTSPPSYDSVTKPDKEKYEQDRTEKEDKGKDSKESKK

[1] = IonWorks Quattro, use-dependent block, hNav1.5, read-out: IWQ Use Nav1.5

| SMILES | IC50 (hNav1.3; use-dependent block, hNav1.3) [µM] | IC50 (hNav1.5; [1]) [µM] | IC50 (hNav1.7; use-dependent block, hNav1.7) [µM] | other results |
| --- | --- | --- | --- | --- |
| C#CC[C@@H]1NC(=O)[C@H](CC(=O)O)NC(=O)[C@@H]2CCCN2C(=O)[C@H]([C@@H](C)CC)NC(=O)[C@@H]2CSSC[C@@H]3NC(=O)[C@H](C(C)C)NC(=O)[C@H](CC(C)C)NC(=O)[C@H](CC(N)=O)NC(=O)[C@@H]4CCCN4C(=O)[C@H](CCCNC(=N)N)NC(=O)[C@H](CSSC[C@H](NC(=O)[C@@H](N)CC(=O)O)C(=O)N[C@@H](CC(C)C)C(=O)NCC(=O)N[C@@H](C)C(=O)N[C@@H](CC(C)C)C(=O)N[C@@H](CCCNC(=N)N)C(=O)N[C@@H](CCCCN)C(=O)N2)NC(=O)[C@H](CSSC[C@@H](C(=O)N[C@@H](CCCCN)C(=O)N[C@@H](Cc2ccc(O)cc2)C(=O)N[C@H](C(=O)N[C@@H](Cc2ccccc2)C(N)=O)C(C)C)NC(=O)[C@H](Cc2c[nH]c4ccccc24)NC(=O)[C@H](CCCNC(=N)N)NC(=O)[C@H](Cc2c[nH]cn2)NC(=O)[C@H](CC(C)C)NC(=O)[C@H](CCCNC(=N)N)NC(=O)[C@H](CO)NC3=O)NC(=O)[C@H](CCCCN)NC(=O)[C@H](CC(=O)O)NC1=O [compound 796] (H-DCLGALRKCIPD[Pra]DKCCRPNLVCSRLHRWCKYVF-NH2; disulfide 2-17, 9-23, 16-30) | 0.48 | 36.4 | 0.22 | – |
| CC[C@H](C)[C@@H]1NC(=O)[C@@H]2CSSC[C@@H]3NC(=O)[C@H](C(C)C)NC(=O)[C@H](CC(C)C)NC(=O)[C@H](CC(N)=O)NC(=O)[C@@H]4CCCN4C(=O)[C@H](CCCNC(=N)N)NC(=O)[C@H](CSSC[C@H](NC(=O)[C@@H](N)CC(=O)O)C(=O)N[C@@H](CC(C)C)C(=O)NCC(=O)N[C@@H](Cc4ccccc4)C(=O)N[C@@H](CCSC)C(=O)N[C@@H](CCCNC(=N)N)C(=O)N[C@@H](CCCCN)C(=O)N2)NC(=O)[C@H](CSSC[C@@H](C(=O)N[C@@H](CCCCN)C(=O)N[C@@H](Cc2ccc(O)cc2)C(=O)NCC(=O)N[C@@H](Cc2ccccc2)C(N)=O)NC(=O)[C@H](Cc2c[nH]c4ccccc24)NC(=O)[C@H](CCCCN)NC(=O)[C@H](Cc2c[nH]cn2)NC(=O)[C@H]([C@@H](C)O)NC(=O)[C@H](CCCNC(=N)N)NC(=O)[C@H](CO)NC3=O)NC(=O)[C@H](CCCCN)NC(=O)[C@H](CC(=O)O)NC(=O)[C@H](CC(N)=O)NC(=O)[C@H](CC(=O)O)NC(=O)[C@@H]2CCCN2C1=O [compound 401] (H-DCLGFMRKCIPDNDKCCRPNLVCSRTHKWCKYGF-NH2; disulfide 2-17, 9-23, 16-30) | – | – | – | IC50 (hNav1.3; Table 26, use, […]): 0.04 µM; IC50 (hNav1.5; IWQ Use Nav1.5 (μM)): > 5 µM; IC50 (hNav1.7; Table 26, use, […]): 0.29 µM |
| CC[C@H](C)[C@@H]1NC(=O)[C@@H]2CSSC[C@@H]3NC(=O)[C@H](C(C)C)NC(=O)[C@H](CC(C)C)NC(=O)[C@H](CC(N)=O)NC(=O)[C@@H]4CCCN4C(=O)[C@H](CCCNC(=N)N)NC(=O)[C@H](CSSC[C@H](NC(=O)[C@@H](N)CC(=O)O)C(=O)N[C@@H](CC(C)C)C(=O)NCC(=O)N[C@@H](Cc4ccccc4)C(=O)N[C@@H](CCSC)C(=O)N[C@@H](CCCNC(=N)N)C(=O)N[C@@H](CCCCN)C(=O)N2)NC(=O)[C@H](CSSC[C@@H](C(=O)N[C@@H](CCCNC(=N)N)C(=O)N[C@@H](Cc2ccc(O)cc2)C(=O)N[C@H](C(=O)N[C@@H](Cc2ccccc2)C(N)=O)C(C)C)NC(=O)[C@H](Cc2c[nH]c4ccccc24)NC(=O)[C@H](CCCCN)NC(=O)[C@H](Cc2cnc[nH]2)NC(=O)[C@H]([C@@H](C)O)NC(=O)[C@H](CCCNC(=N)N)NC(=O)[C@H](CO)NC3=O)NC(=O)[C@H](CCCCN)NC(=O)[C@H](CC(=O)O)NC(=O)[C@H](CC(N)=O)NC(=O)[C@H](CC(=O)O)NC(=O)[C@@H]2CCCN2C1=O [compound 73] (H-DCLGFMRKCIPDNDKCCRPNLVCSRTHKWCRYVF-NH2; disulfide 2-17, 9-23, 16-30) | – | – | – | IC50 (hNav1.3; Table 25, use, […]): 4.95 µM; IC50 (hNav1.5; Table 25, IonWorks Quattro, use, […], read-out: IWQ Use Nav1.5): 9.17 µM; IC50 (hNav1.7; Table 25, use, […]): 1.36 µM |
| C#CCCC(=O)NCCCC[C@@H]1NC(=O)[C@H](CC(=O)O)NC(=O)[C@@H]2CCCN2C(=O)[C@H]([C@@H](C)CC)NC(=O)[C@@H]2CSSC[C@@H]3NC(=O)[C@H](C(C)C)NC(=O)[C@H](CC(C)C)NC(=O)[C@H](CC(N)=O)NC(=O)[C@@H]4CCCN4C(=O)[C@H](CCCNC(=N)N)NC(=O)[C@H](CSSC[C@H](NC(=O)[C@@H](N)CC(=O)O)C(=O)N[C@@H](CC(C)C)C(=O)NCC(=O)N[C@@H](CC)C(=O)N[C@@H](Cc4ccccc4)C(=O)N[C@@H](CCCNC(=N)N)C(=O)N[C@@H](CCCCN)C(=O)N2)NC(=O)[C@H](CSSC[C@@H](C(=O)N[C@@H](CCCCN)C(=O)N[C@@H](Cc2ccc(O)cc2)C(=O)N[C@H](C(=O)N[C@@H](Cc2ccccc2)C(N)=O)C(C)C)NC(=O)[C@H](Cc2c[nH]c4ccccc24)NC(=O)[C@H](CCCCN)NC(=O)[C@H](Cc2c[nH]cn2)NC(=O)[C@H]([C@@H](C)O)NC(=O)[C@H](CCCNC(=N)N)NC(=O)[C@H](CO)NC3=O)NC(=O)[C@H](CCCCN)NC(=O)[C@H](CC(=O)O)NC1=O [compound 804] (H-DCLG[Abu]FRKCIPDK(Pent4ynoyl)DKCCRPNLVCSRTHKWCKYVF-NH2; disulfide 2-17, 9-23, 16-30) | 0.35 | > 50 | 0.5 | – |
| CC[C@H](C)[C@@H]1NC(=O)[C@@H]2CSSC[C@@H]3NC(=O)[C@H](C(C)C)NC(=O)[C@H](CC(C)C)NC(=O)[C@H](CC(N)=O)NC(=O)[C@@H]4CCCN4C(=O)[C@H](CCCNC(=N)N)NC(=O)[C@H](CSSC[C@H](NC(=O)[C@@H](N)CC(=O)O)C(=O)N[C@@H](CC(C)C)C(=O)NCC(=O)N[C@@H](C)C(=O)N[C@@H](CCSC)C(=O)N[C@@H](CCCNC(=N)N)C(=O)N[C@@H](CCCCN)C(=O)N2)NC(=O)[C@H](CSSC[C@@H](C(=O)N[C@@H](CCCCN)C(=O)N[C@@H](Cc2ccc(O)cc2)C(=O)N[C@H](C(=O)N[C@@H](Cc2ccccc2)C(N)=O)C(C)C)NC(=O)[C@H](Cc2c[nH]c4ccccc24)NC(=O)[C@H](CCC(=O)O)NC(=O)[C@H](Cc2c[nH]cn2)NC(=O)[C@H]([C@@H](C)O)NC(=O)[C@H](CCCNC(=N)N)NC(=O)[C@H](CO)NC3=O)NC(=O)[C@H](CCCCN)NC(=O)[C@H](CC(=O)O)NC(=O)[C@H](CC(N)=O)NC(=O)[C@H](CC(=O)O)NC(=O)[C@@H]2CCCN2C1=O [compound 435] | > 5 | 3.66 | > 5 | – |
| CSCC[C@@H]1NC(=O)[C@H]([C@@H](C)O)NC(=O)CNC(=O)[C@H](CC(C)C)NC(=O)[C@@H](NC(=O)[C@@H](N)CC(=O)O)CSSC[C@@H]2NC(=O)[C@@H]3CSSC[C@@H](C(=O)N[C@@H](CCCCN)C(=O)N[C@@H](Cc4ccc(O)cc4)C(=O)N[C@H](C(=O)N[C@@H](Cc4ccccc4)C(N)=O)C(C)C)NC(=O)[C@H](Cc4c[nH]c5ccccc45)NC(=O)[C@H](CCCCN)NC(=O)[C@H](Cc4c[nH]cn4)NC(=O)[C@H]([C@@H](C)O)NC(=O)[C@H](CCCNC(=N)N)NC(=O)[C@H](CO)NC(=O)[C@H](CSSC[C@H](NC(=O)[C@H](CCCCN)NC(=O)[C@H](CCCNC(=N)N)NC1=O)C(=O)N[C@@H](CC(=O)O)C(=O)N1CCC[C@H]1C(=O)N[C@@H](CCC(=O)O)C(=O)N[C@@H](CC(N)=O)C(=O)N[C@@H](CC(=O)O)C(=O)N[C@@H](CCCCN)C(=O)N3)NC(=O)[C@H](C(C)C)NC(=O)[C@H](CC(C)C)NC(=O)[C@H](CC(N)=O)NC(=O)[C@@H]1CCCN1C(=O)[C@H](CCCNC(=N)N)NC2=O [compound 773] (H-DCLGTMRKCDPENDKCCRPNLVCSRTHKWCKYVF-NH2; disulfide 2-17, 9-23, 16-30) | 3.4 | 28.4 | 4.5 | – |
| CC[C@@H]1NC(=O)CNC(=O)[C@H](CC(C)C)NC(=O)[C@@H](NC(=O)[C@@H](N)CC(=O)O)CSSC[C@@H]2NC(=O)[C@@H]3CSSC[C@@H](C(=O)N[C@@H](CCCCN)C(=O)N[C@@H](Cc4ccc(O)cc4)C(=O)N[C@H](C(=O)N[C@@H](Cc4ccccc4)C(N)=O)C(C)C)NC(=O)[C@H](Cc4c[nH]c5ccccc45)NC(=O)[C@H](CCC(=O)O)NC(=O)[C@H](Cc4c[nH]cn4)NC(=O)[C@H]([C@@H](C)O)NC(=O)[C@H](CCCNC(=N)N)NC(=O)[C@H](CO)NC(=O)[C@H](CSSC[C@H](NC(=O)[C@H](CCCCN)NC(=O)[C@H](CCCNC(=N)N)NC(=O)[C@H](CCSC)NC1=O)C(=O)N[C@@H]([C@@H](C)CC)C(=O)N1CCC[C@H]1C(=O)N[C@@H](CC(=O)O)C(=O)N[C@@H](CC(N)=O)C(=O)N[C@@H](CC(=O)O)C(=O)N[C@@H](CCCCN)C(=O)N3)NC(=O)[C@H](C(C)C)NC(=O)[C@H](CC(C)C)NC(=O)[C@H](CC(N)=O)NC(=O)[C@@H]1CCCN1C(=O)[C@H](CCCNC(=N)N)NC2=O [compound 706] (H-DCLG[Abu]MRKCIPDNDKCCRPNLVCSRTHEWCKYVF-NH2; disulfide 2-17, 9-23, 16-30) | – | – | – | IC50 (hNav1.3; use-dependent protocol, hNav1.3): > 5 µM; IC50 (hNav1.5; IonWorks Quattro, use-dependent protocol, hNav1.5, read-out: IWQ Use Nav1.5): > 50 µM; IC50 (hNav1.7; use-dependent protocol, hNav1.7): 1.4 µM |

From patent US9340590B2 (priority 2011, dated 2016)
